Results: DBAASP
≈ marks a conversion by molar mass, not a printed value. Where “and” joins values, the source holds several entries; their conditions need not be identical. Equal values may be shown once.

Tests used:
Assay in all cases: ≥ marks a high value that may be exact or a test limit, other limits are often not marked, values filed in µg/mL are converted to µM
[1] = test system: Staphylococcus epidermidis
Staphylococcus aureus = test system: Staphylococcus aureus
[2] = test system: Pseudomonas aeruginosa A093085
[3] = test system: Acinetobacter baumannii ATCC 19606
Acinetobacter baumannii = test system: Acinetobacter baumannii
[4] = test system: Staphylococcus aureus ATCC 29213
[5] = test system: Staphylococcus aureus AB94004
[6] = test system: Escherichia coli ATCC 25922
Enterococcus faecalis = test system: Enterococcus faecalis
Klebsiella pneumoniae = test system: Klebsiella pneumoniae
[7] = test system: Pseudomonas aeruginosa AB93066
[8] = test system: Bacillus subtilis AB91021
[9] = test system: Staphylococcus epidermidis P1111
[10] = test system: Pseudomonas aeruginosa A093115
Pseudomonas aeruginosa = test system: Pseudomonas aeruginosa
[11] = test system: Staphylococcus aureus P1383
Escherichia coli AB94012 = test system: Escherichia coli AB94012
Enterococcus faecium = test system: Enterococcus faecium
[12] = test system: Staphylococcus aureus P1369
[13] = test system: Staphylococcus aureus P1374
[14] = test system: Staphylococcus aureus ATCC 25923
[15] = test system: Staphylococcus aureus NBRC 100910
[16] = test system: Escherichia coli ATCC 35218
[17] = test system: Staphylococcus aureus P1381
[18] = test system: Pseudomonas aeruginosa A092994
[19] = test system: Bacillus thuringiensis AB92037
[20] = test system: Pseudomonas aeruginosa A093052
Escherichia coli = test system: Escherichia coli
[21] = test system: Staphylococcus epidermidis P1389
[22] = test system: Pseudomonas aeruginosa ATCC 27853
[23] = test system: Enterococcus faecalis ATCC 29212
[24] = test system: Pseudomonas aeruginosa A093056
[25] = test system: Micrococcus luteus AB93113
[26] = test system: Klebsiella pneumoniae ATCC 700603
[27] = test system: Micrococcus luteus CGMCC 1.0290
[28] = test system: Bacillus megaterium CGMCC 1.0459
Saccharomyces cerevisiae = test system: Saccharomyces cerevisiae
[29] = test system: Streptococcus pyogenes ATCC 21547
[30] = test system: Schizosaccharomyces pombe
[31] = test system: Candida albicans ATCC 10231
Staphylococcus capitis 1 = test system: Staphylococcus capitis 1
Bacillus megaterium Bm11 = test system: Bacillus megaterium Bm11
[32] = test system: Staphylococcus aureus Cowan 1
[33] = test system: Staphylococcus epidermidis ATCC 12228
[34] = test system: Pseudomonas syringae pv. tabaci 1918NCPPB
[35] = test system: Pseudomonas aeruginosa ATCC 15692
Escherichia coli D21 = test system: Escherichia coli D21
[36] = test system: Yersinia pseudotuberculosis YPIII
Acinetobacter junii RT-4 = test system: Acinetobacter junii RT-4
[37] = test system: Staphylococcus aureus ATCC 25929
[38] = test system: Staphylococcus aureus USA 300
[39] = test system: Staphylococcus epidermidis ATCC 35984

**Q.** CC[C@H](C)[C@H](NC(=O)[C@H](CCCN=C(N)N)NC(=O)[C@H](CCCCN)NC(=O)[C@@H](NC(=O)[C@@H](N)Cc1ccccc1)[C@@H](C)CC)C(=O)N[C@@H](C)C(=O)N[C@@H](CCCN=C(N)N)C(=O)N[C@@H](CC(C)C)C(=O)N[C@@H](CC(C)C)C(=O)N[C@@H](CCCN=C(N)N)C(=O)N[C@@H](CCCCN)C(=O)N[C@H](C(=O)N[C@@H](Cc1ccccc1)C(N)=O)[C@@H](C)CC [FIKRIARLLRKIF] was tested. Which MIC [1] did it give?
**A.** 2.11 µM (≈ 3.53 µg/mL)

**Q.** What about the MIC (Staphylococcus aureus) of the same compound?
**A.** 2.11 µM (≈ 3.53 µg/mL)

**Q.** What about the MIC [2] of the same compound?
**A.** 29.9 µM (≈ 50 µg/mL)

**Q.** What about the MIC [3] of the same compound?
**A.** 2.99 µM (≈ 5 µg/mL)

**Q.** What about the MIC (Acinetobacter baumannii) of the same compound?
**A.** 4.22 µM (≈ 7.07 µg/mL)

**Q.** And the MIC [4]?
**A.** 2.99 µM (≈ 5 µg/mL)

**Q.** And the MIC [5]?
**A.** 1.87 µM (≈ 3.13 µg/mL)

**Q.** What about the MIC [6] of the same compound?
**A.** 14.9 µM and 5.97 µM

**Q.** And the MIC (Enterococcus faecalis)?
**A.** 5.97 µM (≈ 9.99 µg/mL)

**Q.** What about the MIC (Klebsiella pneumoniae) of the same compound?
**A.** 5.97 µM (≈ 9.99 µg/mL)

**Q.** And the MIC [7]?
**A.** 14.9 µM (≈ 25 µg/mL)

**Q.** And the MIC [8]?
**A.** 3.73 µM (≈ 6.25 µg/mL)

**Q.** What about the MIC [9] of the same compound?
**A.** 1.87 µM (≈ 3.13 µg/mL)

**Q.** What about the MIC [10] of the same compound?
**A.** ≥ 59.7 µM

**Q.** What about the MIC (Pseudomonas aeruginosa) of the same compound?
**A.** 8.45 µM (≈ 14.1 µg/mL)

**Q.** And the MIC [11]?
**A.** 3.73 µM (≈ 6.25 µg/mL)

**Q.** And the MIC (Escherichia coli AB94012)?
**A.** 3.73 µM (≈ 6.25 µg/mL)

**Q.** And the MIC (Enterococcus faecium)?
**A.** 2.99 µM (≈ 5 µg/mL)

**Q.** What about the MIC [12] of the same compound?
**A.** 1.87 µM (≈ 3.13 µg/mL)

**Q.** And the MIC [13]?
**A.** 1.87 µM (≈ 3.13 µg/mL)

**Q.** And the MIC [14]?
**A.** 1.87 µM (≈ 3.13 µg/mL)

**Q.** What about the MIC [15] of the same compound?
**A.** 2.39 µM (≈ 4 µg/mL)

**Q.** And the MIC [16]?
**A.** 5.97 µM (≈ 9.99 µg/mL)

**Q.** And the MIC [17]?
**A.** 3.73 µM (≈ 6.25 µg/mL)

**Q.** And the MIC [18]?
**A.** 29.9 µM (≈ 50 µg/mL)

**Q.** And the MIC [19]?
**A.** 3.73 µM (≈ 6.25 µg/mL)

**Q.** And the MIC [20]?
**A.** ≥ 59.7 µM

**Q.** What about the MIC (Escherichia coli) of the same compound?
**A.** 8.45 µM (≈ 14.1 µg/mL)

**Q.** And the MIC [21]?
**A.** 3.73 µM (≈ 6.25 µg/mL)

**Q.** And the MIC [22]?
**A.** 5.97 µM (≈ 9.99 µg/mL)

**Q.** What about the MIC [23] of the same compound?
**A.** 2.99 µM (≈ 5 µg/mL)

**Q.** And the MIC [24]?
**A.** 29.9 µM (≈ 50 µg/mL)

**Q.** What about the MIC [25] of the same compound?
**A.** 3.73 µM (≈ 6.25 µg/mL)

**Q.** And the MIC [26]?
**A.** 5.97 µM (≈ 9.99 µg/mL)

**Q.** For CC(C)C[C@@H]1NC(=O)[C@@H]2CSSC[C@@H](C(=O)N[C@@H](CCCN=C(N)N)C(=O)O)NC(=O)[C@H](C(C)C)NC(=O)[C@@H]3CSSC[C@H](NC(=O)[C@H](C)NC(=O)[C@H](CO)NC(=O)[C@H](Cc4cnc[nH]4)NC(=O)[C@H](CC(N)=O)NC(=O)[C@@H]4CCCN4C(=O)[C@H](CO)NC(=O)[C@H](C(C)C)NC(=O)[C@H](Cc4c[nH]c5ccccc45)NC(=O)[C@H](CCCCN)NC(=O)[C@H](CO)NC(=O)[C@H](CCC(N)=O)NC(=O)[C@H](Cc4ccccc4)NC(=O)[C@H](CO)NC(=O)[C@H](CC(C)C)NC(=O)[C@H](C(C)C)NC(=O)[C@H](CC(=O)O)NC(=O)[C@@H](NC(=O)[C@H](CO)NC(=O)[C@@H](N)Cc4ccccc4)CSSC[C@H](NC(=O)[C@H](CCCCN)NC(=O)CNC(=O)CNC(=O)[C@H](CCCCN)NC(=O)[C@H](CCCN=C(N)N)NC(=O)[C@H](CCCN=C(N)N)NC(=O)[C@H](CCC(N)=O)NC(=O)[C@H](C)NC1=O)C(=O)N[C@@H](CCCCN)C(=O)N[C@@H](CC(N)=O)C(=O)NCC(=O)N[C@@H](CC(=O)O)C(=O)N3)C(=O)N[C@@H](C)C(=O)N[C@@H](C(C)C)C(=O)N[C@@H](CCCN=C(N)N)C(=O)N2 [FSCDVLSFQSKWVSPNHSACAVRCLAQRRKGGKCKNGDCVCR], which MIC [27] is on record?
**A.** 4.54 µM (≈ 21.1 µg/mL)

**Q.** And the MIC [28]?
**A.** 1.5 µM (≈ 6.96 µg/mL)

**Q.** CC[C@H](C)[C@H](NC(=O)[C@H](CCCCN)NC(=O)CNC(=O)[C@H](CC(C)C)NC(=O)[C@H](Cc1ccccc1)NC(=O)[C@H](CCCCN)NC(=O)[C@H](CO)NC(=O)[C@H](Cc1ccccc1)NC(=O)[C@H](Cc1c[nH]c2ccccc12)NC(=O)[C@H](CCC(N)=O)NC(=O)[C@@H](NC(=O)[C@@H](N)Cc1ccccc1)C(C)C)C(=O)N[C@@H](CC(C)C)C(N)=O [FVQWFSKFLGKIL] was tested. Which MIC (Saccharomyces cerevisiae) did it give?
**A.** 6 µM (≈ 9.67 µg/mL)

**Q.** What about the MIC [29] of the same compound?
**A.** 6 µM (≈ 9.67 µg/mL)

**Q.** And the MIC [3]?
**A.** 6 µM (≈ 9.67 µg/mL)

**Q.** And the MIC [30]?
**A.** 6 µM (≈ 9.67 µg/mL)

**Q.** And the MIC [6]?
**A.** 12 µM (≈ 19.3 µg/mL)

**Q.** And the MIC [31]?
**A.** 12 µM (≈ 19.3 µg/mL)

**Q.** What about the MIC (Staphylococcus capitis 1) of the same compound?
**A.** 6 µM (≈ 9.67 µg/mL)

**Q.** What about the MIC (Bacillus megaterium Bm11) of the same compound?
**A.** 3 µM (≈ 4.84 µg/mL)

**Q.** And the MIC [32]?
**A.** 12 µM (≈ 19.3 µg/mL)

**Q.** And the MIC [33]?
**A.** 6 µM (≈ 9.67 µg/mL)

**Q.** What about the MIC [34] of the same compound?
**A.** 24 µM (≈ 38.7 µg/mL)

**Q.** What about the MIC [35] of the same compound?
**A.** 24 µM (≈ 38.7 µg/mL)

**Q.** What about the MIC (Escherichia coli D21) of the same compound?
**A.** 24 µM (≈ 38.7 µg/mL)

**Q.** And the MIC [14]?
**A.** 6 µM (≈ 9.67 µg/mL)

**Q.** And the MIC [36]?
**A.** 6 µM (≈ 9.67 µg/mL)

**Q.** And the MIC (Acinetobacter junii RT-4)?
**A.** 6 µM (≈ 9.67 µg/mL)

**Q.** And the MIC [22]?
**A.** 48 µM (≈ 77.4 µg/mL)

**Q.** What about the MIC [23] of the same compound?
**A.** 12 µM (≈ 19.3 µg/mL)

**Q.** Which results are given for CC(C)C[C@H](NC(=O)[C@H](CC(C)C)NC(=O)[C@@H](NC(=O)[C@@H]1CCCN1C(=O)[C@H](CCCCN)NC(=O)[C@@H](N)[C@@H](C)O)[C@@H](C)O)C(=O)NCC(=O)N[C@@H](CC(C)C)C(=O)N1CCC[C@H]1C(=O)N[C@@H](CC(C)C)C(=O)NCC(=O)N[C@@H](C)C(=O)NCC(=O)N1CCC[C@H]1C(=O)N[C@@H](C)C(=O)N[C@@H](C)C(=O)NCC(=O)N1CCC[C@H]1C(=O)NCC(=O)N[C@@H](CCCCN)C(=O)N[C@@H](CCCN=C(N)N)C(N)=O [TKPTLLGLPLGAGPAAGPGKR]?
**A.** MIC [6]: 16 µM (≈ 31.5 µg/mL); MIC [37]: 8 µM (≈ 15.8 µg/mL)

**Q.** Which results are given for CC[C@H](C)[C@H](NC(=O)[C@H](C)NC(=O)[C@H](CCCCN)NC(=O)[C@@H](NC(=O)[C@@H](NC(=O)[C@H](CCCCN)NC(=O)[C@@H](NC(=O)[C@@H](NC(=O)[C@@H](NC(=O)CNC(=O)[C@@H](N)C(C)C)[C@@H](C)O)[C@@H](C)CC)[C@@H](C)CC)[C@@H](C)CC)[C@@H](C)CC)C(=O)N[C@H](C(=O)N[C@@H](CC(=O)O)C(=O)N[C@H](C(=O)N[C@@H](Cc1ccccc1)C(=O)N[C@@H](C)C(=O)N[C@@H](CCCCN)C(=O)O)[C@@H](C)CC)[C@@H](C)CC [VGTIIKIIKAIIDIFAK]?
**A.** MIC [38]: ≥ 64 µM; MIC [39]: ≥ 64 µM
